The assay concerns P. aeruginosa PA14 ΔlasI ΔrhII CRISPR adaptation. Description: CRISPR adaptation (new spacer integration by PCR). The format is cell-based. The conditions noted are these: ΔlasI ΔrhII strain; AIs 2 μM 3-O—C12-HSL+10 μM C4-HSL given together; Baicalein 100 μM with AIs; vs DMSO. The procedure:
FIG. 3. QS inhibitors block CRISPR adaptation and disable QS-mediated bacterial immunity. A P. aeruginosa PA14 ΔlasI ΔrhII QS deficient strain was transformed with foreign DNA (e.g., a CRISPR-targeted plasmid). A single colony from the transformation was re-streaked on selective media containing either DMSO (as a control), AIs (2 μM 3-O—C12-HSL+10 μM C4-HSL), or AIs and a QS inhibitor (2 μM 3-O—C12-HSL+10 μM C4-HSL+100 μM Baicalein). Single colonies were tested for integration of new inserted spacers (conferring immunity) against the CRISPR-targeted plasmid. In particular, PCR primers were designed to amplify specific genomic regions into which spacers were inserted. Primers complementary to the region upstream of the CRISPR region and to the second spacer region were designed, and PCR amplification was utilized to test for the presence of the newly inserted spacer (a process referred to as adaptation).
A P. aeruginosa PA14 ΔlasI ΔrhII QS deficient strain was transformed with foreign DNA (e.g., a CRISPR-targeted plasmid such as pCR2SP1, as described above). A single colony from the transformation was re-streaked on selective medium, e.g., LB medium containing 50 μg/ml gentamicin and either DMSO (as a control), AIs (2 μM 3-O—C12-HSL+10 μM C4-HSL), or both AIs and a QS inhibitor (2 μM 3-O—C12-HSL+[…] C4-HSL+100 μM Baicalein QS inhibitor) and incubated at 37° C. O/N. Single colonies were tested for integration of new immunity spacers against the CRISPR-targeted plasmid by PCR using iProof High-Fidelity DNA Polymerase (Bio-Rad) and primers CR2SP check F+R upstream of the CRISPR2 region and in the second spacer. Thus, PCR primers were designed to amplify the genomic region in which the new spacer was present. Primers targeting a sequence upstream of the CRISPR-Cas region and targeting the second spacer region were designed, and PCR amplification was utilized to test for the presence of the new inserted spacer (a portion of the plasmid sequence inserted between the CRISPR locus and spacers). […]

As to `O=c1cc(-c2ccccc2)oc2cc(O)c(O)c(O)c12` [Molecule 46, Baicalein], the “CRISPR adaptation (fraction of cells in the colony that adapted)” value is listed as “blocked the positive effects of AIs on CRISPR adaptation”.

The values are drawn from patent US20190307818A1, “NOVEL ANTIMICROBIAL COMPOSITIONS AND METHODS OF USE” (priority 2016, published 2019).
